#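 1) Cells in 96-well plates. 2) Compound, 48 h, 5 concentrations. 3) Linear interpolation between surrounding doses. 4) Unreached endpoint = highest concentration. GI50 = concentration required for 50% inhibition of growth. TGI marks complete inhibition of growth.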
# Legend:
# Assay in all cases: DTP human tumour cell line panel, 48 h
# CAKI-1 renal = system: CAKI-1 renal
# COLO 205 colon = system: COLO 205 colon
# EKVX NSCLC = system: EKVX NSCLC
# HOP-92 NSCLC = system: HOP-92 NSCLC
# MDA-MB-231 breast = system: MDA-MB-231 breast
# OVCAR-8 ovarian = system: OVCAR-8 ovarian
# RXF 393 renal = system: RXF 393 renal
# SK-MEL-28 melanoma = system: SK-MEL-28 melanoma
# SNB-19 CNS = system: SNB-19 CNS
# SNB-75 CNS = system: SNB-75 CNS
Compound,TGI (CAKI-1 renal),TGI (COLO 205 colon),TGI (EKVX NSCLC),TGI (HOP-92 NSCLC),TGI (MDA-MB-231 breast),TGI (OVCAR-8 ovarian),TGI (RXF 393 renal),TGI (SK-MEL-28 melanoma),TGI (SNB-19 CNS),TGI (SNB-75 CNS),GI50 (CAKI-1 renal),GI50 (COLO 205 colon),GI50 (EKVX NSCLC),GI50 (HOP-92 NSCLC),GI50 (MDA-MB-231 breast),GI50 (OVCAR-8 ovarian),GI50 (RXF 393 renal),GI50 (SK-MEL-28 melanoma),GI50 (SNB-19 CNS),GI50 (SNB-75 CNS)
CCOC(=O)Cc1c(C)c2cc(C(=O)c3ccccc3)c(O)cc2oc1=O,> 100 µM,37.2 µM,88.9 µM,58.8 µM,72 µM,> 100 µM,> 100 µM,> 100 µM,> 100 µM,74.7 µM,–,–,–,–,–,–,–,–,–,–
C/C=C(\C)c1cc(=O)c2c(C)cc3c(c2o1)C(=O)c1c(O)c(C2CC(C)(N(C)C)C(OC(C)=O)C(C)O2)cc(C2CC(N(C)C)C(O)C(C)O2)c1C3=O (stereo not given),5.1 µM,3.05 µM,5.38 µM,30.9 µM,5.96 µM,> 17.5 µM,1.27 µM,8.41 µM,10.9 µM,7.33 µM,–,–,–,–,–,–,–,–,–,–
COc1ccc(C(=O)C(CN(C)C)CN(C)C)cc1,3.56 µM,2.32 µM,51.1 µM,9.84 µM,36.6 µM,22.4 µM,3.8 µM,27.3 µM,33.1 µM,26.5 µM,1.89 µM,1.11 µM,13.7 µM,2.4 µM,14.6 µM,3.14 µM,1.55 µM,12.6 µM,16.3 µM,11.4 µM
O=c1c2c(nc3n1CCS3)[nH]c1cc([N+](=O)[O-])ccc12,> 100 µM,> 100 µM,> 100 µM,> 100 µM,> 100 µM,> 100 µM,> 100 µM,> 100 µM,> 100 µM,> 100 µM,> 100 µM,41.4 µM,> 100 µM,67.9 µM,> 100 µM,> 100 µM,92.6 µM,> 100 µM,> 100 µM,57.1 µM
COc1c/c(=C2\C=c3ccccc3=N2)[nH]/c1=C\c1[nH]c(C)cc1C,0.109 µM,13.6 µM,> 94.4 µM,1.97 µM,3.87 µM,> 21.8 µM,> 100 µM,26.3 µM,> 88.7 µM,4.19 µM,< 0.0103 µM,0.0155 µM,0.601 µM,0.111 µM,0.0117 µM,0.214 µM,0.538 µM,0.103 µM,2.99 µM,0.175 µM
Cc1c(-c2cnccn2)ssc1=S,> 100 µM,> 100 µM,90.9 µM,89.7 µM,> 100 µM,> 100 µM,80.9 µM,> 100 µM,> 100 µM,59.8 µM,–,–,–,–,–,–,–,–,–,–
COc1cc2c(cc1OC(C)C)[C@H](c1ccc(Cl)cc1)N(c1ccc(N(C)CC3CCC(N4CCN(C)C(=O)C4)CC3)cc1)C(=O)C2 (stereo not given in full),4.99 µM,7.36 µM,7.81 µM,4.85 µM,4.02 µM,20.3 µM,7.92 µM,4.29 µM,14.7 µM,8.68 µM,0.345 µM,2.59 µM,1.93 µM,1.98 µM,2.04 µM,5.86 µM,2.66 µM,2 µM,4.07 µM,2.95 µM
COc1ccc(Nc2nc3cc(N)cc(N)c3nc2-c2ccccc2)cc1,> 100 µM,29.2 µM,> 100 µM,52.6 µM,25.2 µM,30.6 µM,24.2 µM,30.5 µM,> 100 µM,42.6 µM,35.2 µM,15.7 µM,26 µM,19.9 µM,11.6 µM,13.9 µM,10.9 µM,16.8 µM,33.8 µM,14.6 µM
OCC1C(OCc2ccccc2)C(OCc2ccccc2)C(OCc2ccccc2)CN1Cc1ccccc1 (stereo not given),> 100 µM,28.4 µM,> 100 µM,44.8 µM,> 100 µM,> 100 µM,48.4 µM,> 100 µM,> 100 µM,31.2 µM,–,–,–,–,–,–,–,–,–,–
COc1ccccc1Nc1cc(O)c2c(=O)cc(-c3ccccc3)oc2c1,20.3 µM,> 100 µM,56 µM,23.7 µM,18.4 µM,> 100 µM,5.34 µM,25.8 µM,15.7 µM,8.5 µM,4.24 µM,9.92 µM,4.83 µM,3.76 µM,3.96 µM,4.65 µM,1.74 µM,3.64 µM,2.99 µM,2.39 µM
CC1Cc2c(Cl)ncnc2N(C)c2ccc(Cl)cc21 (stereo not given),> 100 µM,0.369 µM,9.73 µM,0.986 µM,0.691 µM,20.6 µM,1.46 µM,95.1 µM,> 100 µM,> 100 µM,0.348 µM,0.19 µM,0.299 µM,0.279 µM,0.274 µM,0.394 µM,0.342 µM,0.394 µM,0.636 µM,0.0795 µM
Oc1c(Cl)cc(Cl)c(Cl)c1CNCCNCc1c(O)c(Cl)cc(Cl)c1Cl,9.23 µM,> 50 µM,10.2 µM,10.3 µM,16.6 µM,7.72 µM,6.74 µM,8.64 µM,11.3 µM,10.6 µM,1.09 µM,1.09 µM,1.32 µM,1.66 µM,2.27 µM,0.911 µM,1.41 µM,1.02 µM,1.49 µM,2.43 µM
CCc1nc(N)nc(N)c1-c1ccc(Cl)c([N+](=O)[O-])c1,> 100 µM,55.5 µM,> 100 µM,> 87.1 µM,> 100 µM,> 100 µM,> 100 µM,> 100 µM,> 100 µM,> 100 µM,–,–,–,–,–,–,–,–,–,–
COc1ccc(/C=C\c2cc(OC)c(OC)c(OC)c2)cc1OCC(=O)Nc1nc2ccc(F)cc2s1,> 100 µM,> 100 µM,> 100 µM,> 100 µM,> 100 µM,> 100 µM,> 100 µM,> 100 µM,> 100 µM,> 100 µM,2.78 µM,7.78 µM,5.72 µM,5.73 µM,9.34 µM,7.15 µM,6.29 µM,> 100 µM,> 100 µM,4.39 µM

# From PubChem BioAssay (NCI)
